# Legend:
# Assay type in all cases: in vivo
# [1] = test system: monocotylidonous and dicotylidonous weed and crop plants; experiment: Herbicidal pre-emergence action; settings: 320 g/ha, visual assessment after three weeks, 100% = plants have died; for herbicidal effect in percent, ALOMY: ALOMY = Alopecurus myosuroides; for herbicidal effect in percent, AVEFA: AVEFA = Avena fatua; for herbicidal effect in percent, ECHCG: ECHCG = Echinochloa crus-galli; for herbicidal effect in percent, LOLMU: LOLMU = Lolium multiflorum; for herbicidal effect in percent, SETVI: SETVI = Setaria viridis
# Description: 1. Herbicidal Pre-Emergence Action
# • Seeds of monocotylidonous and dicotylidonous weed and crop plants are placed in sandy loam in wood fibre pots and covered with soil. The test compounds, formulated in the form of wettable powders (WP), are then, as an aqueous suspension with a water application rate of 600 l/ha (converted), with 0.2% of wetting agent added, applied to the surface of the covering soil in different amounts. • After the treatment, the pots are placed in a greenhouse and kept under good growth conditions for the test plants. The visual assessment of the emergence damage on the test plants is carried out after a trial period of three weeks by comparison with the untreated controls (herbicidal effect in percent: 100% effect=the plants have died, 0% effect=like control plants).
# SETVI = experiment: Herbicidal post-emergence action; settings: visual assessment after about three weeks, 100% = plants have died; for herbicidal effect in percent, SETVI: 80 g/ha; for pest or weed control at 80 g/ha: 504 h, read-out: herbicidal effect in percent, SETVI
# Procedure: (§1) 2. Herbicidal Post-Emergence Action
# (§2) • Seeds of monocotylidonous and dicotylidonous weed and crop plants are placed in sandy loam in wood fibre pots, covered with soil and cultivated in a greenhouse under good growth conditions. Two to three weeks after sowing, the test plants are treated at the one-leaf stage. The test compounds, formulated as wettable powders (WP), are then with a water application rate of 600 l/ha (converted), with 0.2% of wetting agent added, sprayed onto the green parts of the plants in different amounts. After the test plants have been kept in the greenhouse under optimum growth conditions for about three weeks, the effect of the preparations is assessed visually in comparison to untreated controls (herbicidal effect in percent: 100% effect=the plants have died, 0% effect=like control plants). Post-Emergence, 80 g/ha
# AVEFA = experiment: Herbicidal post-emergence action; settings: 80 g/ha, visual assessment after about three weeks, 100% = plants have died
# Procedure: as §1, §2
# ALOMY = experiment: Herbicidal post-emergence action; settings: 80 g/ha, visual assessment after about three weeks, 100% = plants have died
# Procedure: as §1, §2
# LOLMU = experiment: Herbicidal post-emergence action; settings: 80 g/ha, visual assessment after about three weeks, 100% = plants have died
# Procedure: as §1, §2
# ECHCG = experiment: Herbicidal post-emergence action; settings: 80 g/ha, visual assessment after about three weeks, 100% = plants have died
# Procedure: as §1, §2
SMILES,"herbicidal effect in percent, ALOMY [1] [%]","herbicidal effect in percent, AVEFA [1] [%]","herbicidal effect in percent, ECHCG [1] [%]","herbicidal effect in percent, LOLMU [1] [%]","herbicidal effect in percent, SETVI [1] [%]","herbicidal effect in percent, VIOTR ([1]; VIOTR = Viola tricolor) [%]","herbicidal effect in percent, SETVI (SETVI) [%]","herbicidal effect in percent, AVEFA (AVEFA) [%]","herbicidal effect in percent, ALOMY (ALOMY) [%]","herbicidal effect in percent, LOLMU (LOLMU) [%]","herbicidal effect in percent, ECHCG (ECHCG) [%]",pest or weed control at 80 g/ha (SETVI) [%]
CCc1cc(C)cc(CC)c1C1=C(OC(=O)C(C)(C)C)C2CC(C3OCCO3)CC2C1=O (mixture of isomers) [I-b-4],100,90,100,100,100,90,100,90,100,100,100,–
CCc1cc(C)cc(CC)c1C1=C(OC(=O)C(C)(C)C)C2CC(C(OC)OC)CC2C1=O (mixture of isomers) [I-b-5],100,100,100,100,90,–,100,100,100,100,100,–
"CCc1cc(C)cc(CC)c1C1C(=O)C2CC(C#N)CC2C1=O (stereo not shown) [I-a-4, 5-(2,6-Diethyl-4-methylphenyl)-4,6-dioxooctahydropentalene-2-carbonitrile]",–,–,100,–,90,–,–,90,50,60,100,100
"CCc1cc(C)cc(CC)c1C1C(=O)C2CC(C3OCCCO3)CC2C1=O (stereo not shown) [I-a-5, 2-(2,6-Diethyl-4-methylphenyl)-5-(1,3-dioxan-2-yl)tetrahydropentalene-1,3(2H,3aH)-dione]",100,90,–,100,90,–,–,100,100,100,100,100
CCc1cc(C)cc(CC)c1C1C(=O)C2CC(CO)CC2C1=O (stereo not shown) [I-a-7],–,80,100,100,–,–,80,70,100,100,100,–
CCc1cc(C)cc(CC)c1C1C(=O)C2CC(C(=O)OC)CC2C1=O (stereo not shown) [I-a-9],100,80,100,100,90,–,100,90,100,100,100,–

# From patent US9101133B2, “Phenyl-substituted bicyclooctane-1,3-dione-derivatives” (BAYER INTELLECTUAL PROPERTY GMBH, priority 2010, dated 2015)
